From patent publication US20070009614A1, “Composition and method for treating hypertension” (Northern Sydney Area Health Service, priority 2002, published 2007)

Experiments:
[1] = test system: elderly patients with systolic hypertension; experiment: Group I: double-blind randomised crossover study of single doses in patients with systolic hypertension, no baseline angiotensin II inhibition; details: for Sitting brachial blood pressure systolic: at 11.00 h after single dose at 08.00 h (ISMN 60 mg, captopril 25 mg, eprosartan 600 mg), placebo 173 ± 3; for Sitting brachial blood pressure systolic / Heart rate (sitting) / Sitting brachial blood pressure diastolic / Standing brachial blood pressure diastolic / Standing brachial blood pressure systolic / decrease in P1 (aortic first peak pressure) at nadir / decrease in P2 (augmentation pressure) at nadir: mean ± SEM; for Heart rate (sitting) / Sitting brachial blood pressure diastolic / Standing brachial blood pressure diastolic / Standing brachial blood pressure systolic: at 11.00 h after single dose at 08.00 h; for Heart rate (sitting): placebo 60 ± 4; for Sitting brachial blood pressure diastolic: placebo 82 ± 3; for Standing brachial blood pressure diastolic: placebo 83 ± 3; for Standing brachial blood pressure systolic: placebo 166 ± 4; for effect on augmentation index: post-dose observation period; for effect on aortic systolic blood pressure: ISMN and captopril P<0.0001, eprosartan P<0.001; for aortic systolic pressure lower than control at nadir of hypotensive effect: nadir ISMN 10.00 h, captopril 11.00 h, eprosartan 09.00 h
From the text: The subjects were sixteen patients with long-standing hypertension, referred from their family physicians after having undergone treatment trials using a variety of conventional antihypertensive agents without reaching satisfactory control of systolic blood pressure. […] Plasma creatinine concentration was <0.15 mmol/l in every case. There was a history of myocardial infarction Or coronary bypass grafting in eight subjects, of peripheral vascular disease in four, and of diabetes mellitus (not requiring medication) in one. All patients were fully ambulant without symptomatic cardiac disease or known vascular aneurysm. Their current regimen of antihypertensive therapy had been stable for three weeks or more, and was continued unchanged through the present study. None had received nitrate therapy previously. Two different study protocols were used. One patient participated in both protocols with a 15-month break in between. Entry to either study required that systolic blood pressure should be between 150 and 200 mmHg, and that diastolic blood pressure should be equal to or less than 100 mmHg.
Group I protocol. […] Their baseline anti-hypertensive therapy, which excluded ACE inhibitors and angiotensin II receptor antagonists, consisted of one to three of the following drugs in conventional dosage:. diuretics (7 cases), beta blockers (7), prazosin (1), amlodipine (4), nifedipine controlled-release formulation (2). […] The pulse wave and pulse rate were measured at the same intervals. Between observations, the subjects engaged in sedentary recreational activities in a temperature-controlled environment.
Brachial blood pressure was recorded by sphygmomanometer, and pulse wave tonometry was performed at the radial artery with the patient seated. The aortic pulse wave form was determined and the aortic first peak pressure (P1) and augmentation pressure (P2) were quantified by computer software (SphygmoCor, AtCor Medical, Sydney), as previously reported.^13 Augmentation index (P2 expressed as % of pulse pressure) described the magnitude of wave reflection. Statistical analysis was by repeated measures analysis of variance using PRISM (GraphPad Software Inc., San Diego, Calif.) and post-hoc paired t tests. Values given are mean±SEM.

[2] = reported in literature (refs 15-17); cited from earlier work
[3] = test system: elderly patients with systolic hypertension on chronic angiotensin II inhibitors; experiment: Group II: double-blind randomised crossover study of single-dose ISMN in patients with AII inhibition at baseline; type: in vivo, human; details: for decrease in sitting diastolic pressure: not significant
Procedure: None had received nitrate therapy previously. Two different study protocols were used. […] Group II protocol. […] The two study days were one to two weeks apart. Observations were made from 0800 h to 1600 h as in Group I. These subjects differed from Group I in that they were receiving treatment at study entry with ACE inhibitor or angiotensin II receptor antagonist drugs, as follows: monopril 10 mg/d (1 case), captopril 50 mg/d (1), ramipril 10 mg/day (1), ramipril 10 mg/d and candesartan 16 mg/d (1), irbesartan 300 mg/d (1), telmisartan 40 mg/d (1). Their other baseline antihypertensive drug therapy consisted of 1-2 of the following agents in conventional dosage: hydrochlorthiazide (1), beta blockers (2), amlodipine (1), diltiazem controlled-delivery formulation (2). […] Values given are mean±SEM.

Structure (SMILES) | Sitting brachial blood pressure systolic ([1]; Group I) | Heart rate (sitting) ([1]; Group I) | Sitting brachial blood pressure diastolic ([1]; Group I) | Standing brachial blood pressure diastolic ([1]; Group I) | Standing brachial blood pressure systolic ([1]; Group I) | effect on augmentation index ([1]; Group I) | effect on heart rate ([1]; Group I, single dose) | effect on aortic systolic blood pressure ([1]; Group I, single dose) | decrease in P1 (aortic first peak pressure) at nadir ([1]; Group I, single dose) | decrease in P2 (augmentation pressure) at nadir ([1]; Group I, single dose) | aortic systolic pressure lower than control at nadir of hypotensive effect ([1]; Group I, single dose) | time to reach peak plasma concentration [2] | also measured
C[C@H](CS)C(=O)N1CCC[C@H]1C(=O)O [Captopril, captopril] | 148 ± 5 mm Hg | 59 ± 4 bpm | 78 ± 2 mm Hg | 78 ± 2 mm Hg | 143 ± 5 mm Hg | Neither captopril nor eprosartan altered | not changed | significantly decreased | 9±2 mmHg | 9±3 mm Hg | 23 mm Hg | 1 h | 
CCCCc1ncc(/C=C(\Cc2cccs2)C(=O)O)n1Cc1ccc(C(=O)O)cc1 [Eprosartan, eprosartan] | 158 ± 5 mm Hg | 59 ± 4 bpm | 78 ± 3 mm Hg | 83 ± 4 mm Hg | 152 ± 4 mm Hg | Neither captopril nor eprosartan altered | not changed | significantly decreased | 4±2 mmHg | 6±3 mm Hg | 15 mm Hg | 1 to 2 h | 
O=[N+]([O-])O[C@@H]1CO[C@H]2[C@@H]1OC[C@@H]2O [ISMN, isosorbide mononitrate] | 145 ± 5 mm Hg | 60 ± 5 bpm | 77 ± 3 mm Hg | 77 ± 3 mm Hg | 139 ± 4 mm Hg | significantly reduced |  | significantly decreased | 11±2 mmHg | 19±3 mm Hg | 34 mm Hg | 3 to 4 h | peak decrease in augmentation index ([1]; FIGS. 1 and 2 (Groups I and II)): approximately 50 % of control; average post-dose decrease in augmentation index ([1]; Group I, ISMN 60 mg single dose, control 37.9±1.0%): 15±1%; average post-dose decrease in aortic systolic pressure ([1]; Group I, ISMN 60 mg single dose, control 160±2): 29±2 mmHg; Heart rate average post-dose increase ([1]; Group I, single dose, P<0.001): 3±1 b.p.m.; duration of depressor effect ([1]; extended-release preparation, observation to 16.00 h): sustained through the remainder of the observation period; average post-dose decrease in augmentation index ([3]; Group II (baseline AII inhibition), ISMN 60 mg single dose, control 38.5±1.1%): 16±1%; average post-dose decrease in aortic systolic pressure ([3]; Group II (baseline AII inhibition), ISMN 60 mg single dose, control 154±2): 34±3 mmHg; effect on sitting and standing brachial systolic blood pressure ([3]; Group II, P<0.0001): decreased; decrease in sitting brachial systolic blood pressure ([3]; Group II, at 12.00 h, from control value 176, P<0.001): 37 mm Hg; decrease in sitting diastolic pressure ([3]; Group II, at 12.00 h): 13 mm Hg; decrease in sitting brachial systolic blood pressure ([3]; Group II, at 16.00 h, from control value 173, P<0.001): 34 mm Hg; decrease in sitting diastolic pressure ([3]; Group II, at 16.00 h): 10 mm Hg; Heart rate, overall mean value ([3]; Group II, increased from mean value of 60, P<0.001): 64 bpm
